Tested on: LG0567-F671-PDC KRAS tumor spheroid viability
Assay: Anticancer human tumor LG0567-F671-PDC patient-derived lung adenocarcinoma cell line growth inhibition [KRAS2]
Conditions: spheroids with HUVEC and MSC; for IC50: curve of first compound; for viability, T/C: stronger effect = lower value
Summary of the method: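 KRAS-mutant tumor cells were grown as spheroids with HUVEC endothelial cells and human MSCs as stroma. Targeted agents were tested alone and with KRAS pathway inhibitors. Doses started at or near clinical Cmax, or 10 microM, descending half-log.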

[1] = second compound 0.1 µM, first compound 0.0316 µM
[2] = second compound 0.1 µM, first compound 0.1 µM
[3] = second compound 0.1 µM, first compound 0.316 µM
[4] = second compound 0.1 µM, first compound 1 µM
[5] = second compound 0.1 µM, first compound 3.16 µM
[6] = second compound 0.1 µM, first compound 10 µM
[7] = second compound 0.316 µM, first compound 0.0316 µM
[8] = second compound 0.316 µM, first compound 0.1 µM
[9] = second compound 0.316 µM, first compound 0.316 µM
[10] = second compound 0.316 µM, first compound 1 µM
[11] = second compound 0.316 µM, first compound 3.16 µM
[12] = second compound 0.316 µM, first compound 10 µM
[13] = second compound 1 µM, first compound 0.0316 µM
[14] = second compound 1 µM, first compound 0.1 µM
[15] = second compound 1 µM, first compound 0.316 µM
[16] = second compound 1 µM, first compound 1 µM
[17] = second compound 1 µM, first compound 3.16 µM
[18] = second compound 1 µM, first compound 10 µM
[19] = second compound 3.16 µM, first compound 0.0316 µM
[20] = second compound 3.16 µM, first compound 0.1 µM
[21] = second compound 3.16 µM, first compound 0.316 µM
[22] = second compound 3.16 µM, first compound 1 µM
[23] = second compound 3.16 µM, first compound 3.16 µM
[24] = second compound 3.16 µM, first compound 10 µM
[25] = second compound 10 µM, first compound 0.0316 µM
[26] = second compound 10 µM, first compound 0.1 µM
[27] = second compound 10 µM, first compound 0.316 µM
[28] = second compound 10 µM, first compound 1 µM
[29] = second compound 10 µM, first compound 3.16 µM
[30] = second compound 10 µM, first compound 10 µM
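Further: drug exposure lasted seven days after spheroids formed for three days.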
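Wherever viability, T/C is given: 100% = DMSO vehicle control viability.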

SMILES	IC50 (second compound 0.1 µM) [nM]	IC50 (second compound 0.316 µM) [nM]	IC50 (second compound 1 µM) [nM]	IC50 (second compound 3.16 µM) [nM]	IC50 (second compound 10 µM) [nM]	viability, T/C [1] [%]	viability, T/C [2] [%]	viability, T/C [3] [%]	viability, T/C [4] [%]	viability, T/C [5] [%]	viability, T/C [6] [%]	viability, T/C [7] [%]	viability, T/C [8] [%]	viability, T/C [9] [%]	viability, T/C [10] [%]	viability, T/C [11] [%]	viability, T/C [12] [%]	viability, T/C [13] [%]	viability, T/C [14] [%]	viability, T/C [15] [%]	further results
CC1OCC2(CCN(c3cnc(Sc4ccnc(N)c4Cl)c(N)n3)CC2)C1N (stereo not given) + COc1cc2nc(C)nc(NC(C)c3cc(N)cc(C(F)(F)F)c3)c2cc1OC1CCOC1	62.2	55.5	68.1	57.7	56.2	61.9	40.3	30.6	27.5	23.1	15.3	58	41.6	30.6	25.8	21.7	16	61.5	43.6	32	viability, T/C [16]: 26.3%; viability, T/C [17]: 19.2%; viability, T/C [18]: 13.5%; viability, T/C [19]: 58.1%; viability, T/C [20]: 42.3%; viability, T/C [21]: 32%; viability, T/C [22]: 25.4%; viability, T/C [23]: 19.2%; viability, T/C [24]: 13.6%; viability, T/C [25]: 52.7%; viability, T/C [26]: 47.4%; viability, T/C [27]: 28.9%; viability, T/C [28]: 20.2%; viability, T/C [29]: 19.5%; viability, T/C [30]: 16%
Cn1nccc1Nc1nccc(-c2cc3c(s2)C(C)(C)N(CCN2CCOCC2)C3=O)n1 + COc1cc2nc(C)nc(NC(C)c3cc(N)cc(C(F)(F)F)c3)c2cc1OC1CCOC1	495	456	506	528	609	79.7	67	55.3	43.2	31.3	26.6	80.5	70.7	53.9	42.1	25.3	26.1	68.2	68	54.8	viability, T/C [16]: 41.5%; viability, T/C [17]: 30.3%; viability, T/C [18]: 25.5%; viability, T/C [19]: 71.1%; viability, T/C [20]: 65.6%; viability, T/C [21]: 56.5%; viability, T/C [22]: 42.9%; viability, T/C [23]: 30.8%; viability, T/C [24]: 30.2%; viability, T/C [25]: 74.6%; viability, T/C [26]: 72.2%; viability, T/C [27]: 55.8%; viability, T/C [28]: 45.4%; viability, T/C [29]: 33.4%; viability, T/C [30]: 29.5%
